Results as given in US20140106387A1, “METHOD FOR CONTROLLING NAD(P)/NAD(P)H RATIO BY OXIDOREDUCTASE” (MD BIOALPHA CO., LTD., priority 2006, published 2014).

How the values were obtained:
[1] = test system: HepG2 cells; assay: intracellular ATP, ADP and AMP levels by LC-MS in HepG2; format: cell-based, human; details: HepG2, 10 μM, 2 hours
Procedure: Samples were analyzed using an Agilent 1100 series LC/MSD system equipped with G1322A degasser, G1312A binary pump, G1315A photo-diode-array detector, 59987A electrospray interface and 5989B mass spectrometer. ES-MS analysis was performed using an Agilent 5989 electrospray (ES) mass spectrometer (MS) with an Agilent Atmospheric Pressure Ionization (API) interface fitted with a hexapole ion guide. Chromatogram was automatically integrated with the aid of Chemstation software, and concentrations were determined using a standard calibration curve.
Acid extraction was used for analysis of an AOPN concentration in the cells and liver tissues. 400 μl of 6% HClO4 was added to the cells cultured in a 100 mm dish, whereas a two-fold volume of 6% HClO4 was added to the liver tissues which were then immediately homogenized. Each mixture was centrifuged at 14,000 g and 4° C. for 10 min, and the resulting supernatants were neutralized by addition of 1 M borate buffer (pH 11) containing 4 mM EDTA in an amount of 75%. Samples were aliquoted and stored at a temperature of −80° C.
A mobile phase was 100 mM ammonium acetate:MeOH (98:2, v/v), and preparations were filtered through a 0.22-μm Millipore filter. A flow rate was set to 0.8 mL/min and detection was made at 254 nm. Separation was carried out using a ZORBAX Bonus-RP C18 column (3.5 μm, 4.6×150 mm I.D., Waters, USA). […]

[2] = test system: eNOS; assay: phosphorylation of endothelial nitric oxide synthase (eNOS) in HUVEC; format: cell-based, human; details: 10 μM
Procedure: It is well-known that activation of AMPK activates NRF-1 and facilitates mitochondrial biogenesis. In addition, NO/cGMP activates PGC-1α and NRF-1 to facilitate mitochondrial biogenesis. In order to ascertain whether an NQO1 activator, which activates AMPK, is involved in production of nitric oxide (NO), a degree of phosphorylation, leading to an increase in activity of endothelial nitric oxide synthase (eNOS), was determined. […] The culture medium was replaced with a serum free EBM2 medium, and cells were treated with pyrano-1,2-naphthoquinone (10 μM) for a predetermined time. Phosphorylated eNOS was observed using Anti-[…] eNOS.

[3] = spontaneous locomotor activity; format: in vivo, mouse; details: C57BL/6 DIO mice, 3 hours after administration, measured for 7 hours
Procedure: Pyrano-1,2-naphthoquinone was administered to C57BL/6 DIO mice, and 3 hours later spontaneous locomotor activity was measured using Versa MAX Activity Monitors & Analyzer (AccuSan Instruments, Columbus, Ohio, USA). […] In order to distinguish between spontaneous locomotor and stereotypic/grooming behavior, animal activity was measured by taking continuous interference of two different scanning lines caused by mice as an effective determination standard. The pyrano-1,2-naphthoquinone-administered group, the vehicle-administered group and the control group were respectively placed in each measuring apparatus, and activity and motion of animals were measured for 7 hours. For acclimation of the animals to the new environment, mice were placed in the apparatus 2 hours prior to measurement.

[4] = Respiratory Quotient and indirect calorimetry; format: in vivo, mouse
Procedure: O2 consumption of animals was recorded by a known method. For indirect calorimetry, mice were individually housed in calorimetry chambers (Oxymax OPTO-M3 system; Columbus Instruments, Columbus, Ohio). Animals were allowed to acclimate to a new environment for 48 hours prior to the experiment, and amounts of O2 consumption and CO2 production were measured for […] every 30 minutes. Mice were given free access to food and drinking water during the first 24 h period, and animals were given access to drinking water only during the second 24 h period. Blood samples were taken from a heparinized tube, immediately placed on ice, centrifuged and stored at −20[…] for future use. Enzymatic colorimetry was employed for quantification of triglyceride (TG), total cholesterol, free fatty acids, and glucose (Beckman Instruments, CA). Plasma insulin (Linco Research, MO), TNFα (R&D System), adiponectin (Linco Research, MO), resistin (KOMED) and leptin (Linco Research, MO) were quantified by ELISA.
This Example was intended to examine effects of pyran-1,2-naphthoquinone on fat metabolism via measurement of Respiratory Quotient (RQ). Oxygen consumption and carbon dioxide production were measured using an Oxyscan open-circuit indirect calorimeter (AccuScan Instruments, Columbus, Ohio). This apparatus consisted of enclosed acrylic chambers (21×21×21 cm). Fresh air was drawn into each chamber at a rate of 1500 mL/min and then O2 and CO2 were allowed to pass through detectors. The concentrations of the gases were recorded in mL/kg body weight/min. RQ was calculated as the volume of CO2 produced (VCO2) divided by the volume of O2 consumed (VO2). A pyrano-1,2-naphthoquinone-administered group, a vehicle-administered group and a control group were placed in each apparatus, and RQ was measured for 7 hours. For acclimation of the animals to the new environment, mice were placed in the apparatus 2 hours prior to measurement.

SMILES: CC1(C)CCC2=C(O1)c1ccccc1C(=O)C2=O [βL, 2,2-Dimethyl-3,4-dihydro-2H-benzo[h]chromene-5,6-dione]
- time at which ATP amount was minimum and AMP amount maximum [1]: 30 min
- time of maximum increase of phosphorylation of eNOS [2]: 30 min
- phosphorylation of eNOS 2 hours later ([2]; 2 hours): not observed
- spontaneous locomotor activity [3]: significant difference in the motion and activity of animals
- Respiratory Quotient (RQ) ([4]; measured for 7 hours, vs vehicle-administered and control group): significant difference in a RQ value
- oxygen consumption (indirect calorimetry) ([4]; βL-treated mice): increases in night-time and day-time oxygen consumption
- energy consumption ([4]; βL-treated mice vs control group): higher energy consumption
